Experiments:
Assay type in all cases: cell-based
[1] = target: T1, PAR2 (HT-29 cells) (Homo sapiens, UniProt P55085); test: Ca FLIPR TETRA assay, ANTAGONIST mode, activator 8 μM SLIGKV; details: HT-29 cells; activator 8 μM SLIGKV; Method A: maximal concentration of antagonist 0.1, 1 or 2 μM
T1 construct: host or cells: HT-29
T1 sequence (P55085 26-397): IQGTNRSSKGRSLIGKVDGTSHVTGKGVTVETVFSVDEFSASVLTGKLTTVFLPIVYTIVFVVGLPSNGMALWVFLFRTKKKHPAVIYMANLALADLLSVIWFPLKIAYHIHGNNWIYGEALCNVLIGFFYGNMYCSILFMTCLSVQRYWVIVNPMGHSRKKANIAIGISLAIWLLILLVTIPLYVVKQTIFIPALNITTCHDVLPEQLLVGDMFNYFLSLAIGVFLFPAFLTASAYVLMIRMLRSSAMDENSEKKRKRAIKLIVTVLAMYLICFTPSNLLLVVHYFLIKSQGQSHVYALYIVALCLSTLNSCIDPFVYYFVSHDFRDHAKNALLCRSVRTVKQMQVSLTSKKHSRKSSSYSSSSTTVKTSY
Outline: (§1)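 Fluorescent Ca2+ dye (calcium 5) loading of overnight-plated HT-29 cells preceded compound addition and a 30 min room-temperature incubation. Responses to the specified activator concentration were then read by FLIPR Tetra in the same plate.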

[2] = tested on: UTP-stimulated Ca2+ response in HT-29 cells; test: Ca FLIPR TETRA assay, ANTAGONIST mode, activator 0.6 μM UTP; details: HT-29 cells, activator 0.6 μM UTP
Outline: as §1

[3] = tested on: Thrombin-stimulated Ca2+ response in HT-29 cells; test: Ca FLIPR TETRA assay, ANTAGONIST mode, activator 1 U/mL Thrombin; details: HT-29 cells, activator 1 U/mL Thrombin
Outline: as §1

[4] = target: T1, PAR2 (HT-29 cells); test: Ca FLIPR TETRA assay, ANTAGONIST mode, activator 3.1 U/mL trypsin; details: HT-29 cells; activator 3.1 U/mL trypsin; Method A: maximal concentration of antagonist 0.1, 1 or 2 μM
Outline: as §1

SMILES: CC(C)(C)c1cc(-c2ccc(Cl)c(F)c2)nc2cc(C(=O)N3CCN(C(=O)[C@@H]4CCCC[C@@H]4C(=O)O)CC3(C)C)oc12 [Example I-500]
- IC50 [1]: 0.4 nM
- IC50 ([2]; Homo sapiens): > 2000 nM
- IC50 ([3]; Homo sapiens): > 2000 nM
- IC50 [4]: 0.5 nM

SMILES: CC(C)(C)c1cc(-c2ccc(Cl)c(F)c2)nc2cc(C(=O)N3CCN(c4nc(C(=O)O)ccc4F)CC3(C)C)oc12 [Example I-501]
- IC50 [1]: 0.1 nM
- IC50 [2]: > 2000 nM
- IC50 [3]: > 2000 nM
- IC50 [4]: 0.1 nM

SMILES: CC(C)(C)c1cc(-c2ccc(Cl)cc2)nc2cc(C(=O)N3CCN(c4nc(C(=O)O)ccc4F)CC3(C)C)oc12 [Example I-502]
- IC50 [1]: 0.2 nM
- IC50 [2]: > 2000 nM
- IC50 [3]: > 2000 nM
- IC50 [4]: 0.2 nM

SMILES: CC1(C)CCC(c2cc(C(C)(C)C)c3oc(C(=O)N4CCN(c5nc(C(=O)O)ccc5F)CC4(C)C)cc3n2)CC1 [Example I-503]
- IC50 [1]: 0.2 nM
- IC50 [2]: > 2000 nM
- IC50 [3]: > 2000 nM
- IC50 [4]: 0.3 nM

SMILES: Cc1cc(C(=O)N2CCN(C(=O)c3cc4nc(-c5ccc(Cl)c(F)c5)cc(C(C)(C)C)c4o3)C(C)(C)C2)[nH]n1 [Example I-504]
- IC50 [1]: 1.2 nM
- IC50 ([2]; Homo sapiens): > 2000 nM
- IC50 ([3]; Homo sapiens): > 2000 nM
- IC50 [4]: 1.7 nM

SMILES: Cn1cnnc1N1CCN(C(=O)c2cc3nc(-c4ccc(Cl)cc4)cc(C(C)(C)C)c3o2)C(C)(C)C1 [Example I-505]
- IC50 [1]: 14 nM
- IC50 ([2]; Homo sapiens): > 2000 nM
- IC50 ([3]; Homo sapiens): > 2000 nM
- IC50 [4]: 9.6 nM

SMILES: CC(C)(C)c1cc(-c2ccc(Cl)c(F)c2)nc2cc(C(=O)N3CCN(C(=O)[C@@H]4CCCC[C@H]4C(=O)O)CC3(C)C)oc12 [Example I-506]
- IC50 [1]: 23 nM
- IC50 ([2]; Homo sapiens): > 2000 nM
- IC50 ([3]; Homo sapiens): > 2000 nM
- IC50 [4]: 21 nM

SMILES: CC(C)(C)c1cc(-c2ccc(Cl)c(F)c2)nc2cc(C(=O)N3CCN(C(=O)NS(=O)(=O)c4ccccc4)CC3(C)C)oc12 [Example I-507]
- IC50 [1]: 0.6 nM
- IC50 ([2]; Homo sapiens): > 2000 nM
- IC50 ([3]; Homo sapiens): > 2000 nM
- IC50 [4]: 0.5 nM

SMILES: CC(C)(C)c1cc(-c2ccc(Cl)c(F)c2)nc2cc(C(=O)N3CCN(S(C)(=O)=O)CC3(C)C)oc12 [Example I-508]
- IC50 [1]: 8.1 nM
- IC50 ([2]; Homo sapiens): > 2000 nM
- IC50 ([3]; Homo sapiens): > 2000 nM
- IC50 [4]: 10 nM

SMILES: CC1(C)CCC(c2cc(C(C)(C)C)c3oc(C(=O)N4CCN(C(=O)[C@H]5CC[C@@](C)(C(=O)OCOP(=O)(O)O)CC5)CC4(C)C)cc3n2)CC1 [Example I-509]
- IC50 [1]: 0.2 nM
- IC50 ([2]; Homo sapiens): > 2000 nM
- IC50 ([3]; Homo sapiens): > 2000 nM
- IC50 [4]: 0.5 nM

SMILES: CC(C)(C)c1cc(-c2ccc(Cl)c(F)c2)nc2cc(C(=O)N3CCN(c4ccc(C(=O)O)c(N)n4)CC3(C)C)oc12 [Example I-510]
- IC50 [1]: 0.3 nM
- IC50 ([2]; Homo sapiens): > 2000 nM
- IC50 ([3]; Homo sapiens): > 2000 nM
- IC50 [4]: 0.8 nM

SMILES: CC(C)(C)c1cc(-c2ccc(Cl)cc2)nc2cc(C(=O)N3CCN(C(=O)[C@@H]4CCCC[C@H]4C(=O)O)CC3(C)C)oc12 [Example I-511]
- IC50 [1]: 43 nM
- IC50 ([2]; Homo sapiens): > 2000 nM
- IC50 ([3]; Homo sapiens): > 2000 nM
- IC50 [4]: 49.5 nM

SMILES: CC(C)(C)c1cc(-c2ccc(Cl)c(F)c2)nc2cc(C(=O)N3CCN(C(=O)[C@@H]4CC[C@H](C(=O)O)C4)CC3(C)C)oc12 [Example I-512]
- IC50 [1]: 19 nM
- IC50 ([2]; Homo sapiens): > 2000 nM
- IC50 ([3]; Homo sapiens): > 2000 nM
- IC50 [4]: 18 nM

SMILES: CC(C)(C)c1cc(-c2ccc(Cl)c(F)c2)nc2cc(C(=O)N3CCN(c4cc(C(F)(F)F)cnc4C(=O)O)CC3(C)C)oc12 [Example I-515]
- IC50 [1]: 16 nM
- IC50 ([2]; Homo sapiens): > 2000 nM
- IC50 ([3]; Homo sapiens): > 2000 nM
- IC50 [4]: 21 nM

SMILES: CC(C)(C)c1cc(-c2ccc(Cl)c(F)c2)nc2cc(C(=O)N3CCN(c4nc(-c5ccccc5)ccc4C(=O)O)CC3(C)C)oc12 [Example I-516]
- IC50 [1]: 1.8 nM
- IC50 ([2]; Homo sapiens): > 2000 nM
- IC50 ([3]; Homo sapiens): > 2000 nM
- IC50 [4]: 2.7 nM

SMILES: CC(C)(C)c1cc(-c2ccc(Cl)c(F)c2)nc2cc(C(=O)N3CCN(c4cc(C(=O)O)c(F)cn4)CC3(C)C)oc12 [Example I-517]
- IC50 [1]: 1.4 nM
- IC50 ([2]; Homo sapiens): > 2000 nM
- IC50 ([3]; Homo sapiens): > 2000 nM
- IC50 [4]: 2.3 nM

SMILES: CC(C)(C)c1cc(-c2ccc(Cl)c(F)c2)nc2cc(C(=O)N3CCN(c4ncc(F)cc4C(=O)O)CC3(C)C)oc12 [Example I-518]
- IC50 [1]: 10 nM
- IC50 ([2]; Homo sapiens): > 2000 nM
- IC50 ([3]; Homo sapiens): > 2000 nM
- IC50 [4]: 17 nM

SMILES: CC(C)(C)c1cc(-c2ccc(Cl)c(F)c2)nc2cc(C(=O)N3CCN(c4ncncc4C(=O)O)CC3(C)C)oc12 [Example I-519]
- IC50 [1]: 14 nM
- IC50 ([2]; Homo sapiens): > 2000 nM
- IC50 ([3]; Homo sapiens): > 2000 nM
- IC50 [4]: 26 nM

SMILES: Cc1cnc(N2CCN(C(=O)c3cc4nc(-c5ccc(Cl)c(F)c5)cc(C(C)(C)C)c4o3)C(C)(C)C2)nc1C(=O)O [Example I-520]
- IC50 [1]: 0.3 nM
- IC50 ([2]; Homo sapiens): > 2000 nM
- IC50 ([3]; Homo sapiens): > 2000 nM
- IC50 [4]: 0.4 nM

SMILES: Cc1cnc(N2CCN(C(=O)c3cc4nc(-c5ccc(Cl)cc5)cc(C(C)(C)C)c4o3)C(C)(C)C2)nc1C(=O)O [Example I-521]
- IC50 [1]: 0.7 nM
- IC50 ([2]; Homo sapiens): > 2000 nM
- IC50 ([3]; Homo sapiens): > 2000 nM
- IC50 [4]: 1.2 nM

SMILES: CN1CCN(C(=O)c2cc3nc(-c4ccc(Cl)c(F)c4)cc(C(C)(C)C)c3o2)C(C)(C)CC1=O [Example I-522]
- IC50 [1]: 2.5 nM
- IC50 ([2]; Homo sapiens): > 2000 nM
- IC50 ([3]; Homo sapiens): > 2000 nM
- IC50 [4]: 2.6 nM

SMILES: Cc1cc(C(=O)N2CCN(C(=O)c3cc4nc(C5CCC(C)(C)CC5)cc(C(C)(C)C)c4o3)C(C)(C)C2)[nH]n1 [Example I-523]
- IC50 [1]: 2 nM
- IC50 ([2]; Homo sapiens): > 2000 nM
- IC50 ([3]; Homo sapiens): > 2000 nM
- IC50 [4]: 1.9 nM

SMILES: Cc1ncc(N2CCN(C(=O)c3cc4nc(-c5ccc(Cl)c(F)c5)cc(C(C)(C)C)c4o3)C(C)(C)C2)nc1C(=O)O [Example I-524]
- IC50 [1]: 2 nM
- IC50 ([2]; Homo sapiens): > 2000 nM
- IC50 ([3]; Homo sapiens): > 2000 nM
- IC50 [4]: 2.6 nM

SMILES: Cc1ncc(N2CCN(C(=O)c3cc4nc(C5CCC(C)(C)CC5)cc(C(C)(C)C)c4o3)C(C)(C)C2)nc1C(=O)O [Example I-525]
- IC50 [1]: 0.7 nM
- IC50 [2]: 1650 nM
- IC50 [3]: 1600 nM
- IC50 [4]: 1.4 nM

SMILES: CN1CC(C)(C)N(C(=O)c2cc3nc(-c4ccc(Cl)c(F)c4)cc(C(C)(C)C)c3o2)CCC1=O [Example I-526]
- IC50 [1]: 240 nM
- IC50 ([2]; Homo sapiens): > 2000 nM
- IC50 ([3]; Homo sapiens): > 2000 nM
- IC50 [4]: 147 nM

SMILES: CC(C)(C)c1cc(-c2ccc(Cl)c(F)c2)nc2cc(C(=O)N3CCN(C(=O)NS(C)(=O)=O)CC3(C)C)oc12 [Example I-527]
- IC50 [1]: 31 nM
- IC50 ([2]; Homo sapiens): > 2000 nM
- IC50 ([3]; Homo sapiens): > 2000 nM
- IC50 [4]: 45 nM

SMILES: Cc1cc(C(=O)O)c(N2CCN(C(=O)c3cc4nc(-c5ccc(Cl)c(F)c5)cc(C(C)(C)C)c4o3)C(C)(C)C2)nn1 [Example I-528]
- IC50 [1]: 270 nM
- IC50 ([2]; Homo sapiens): > 2000 nM
- IC50 ([3]; Homo sapiens): > 2000 nM
- IC50 [4]: 250 nM

SMILES: CC(C)(C)c1cc(-c2ccc(Cl)c(F)c2)nc2cc(C(=O)N3CCN(c4ccc(-c5nnn[nH]5)cn4)CC3(C)C)oc12 [Example I-529]
- IC50 [1]: 1 nM
- IC50 ([2]; Homo sapiens): > 2000 nM
- IC50 ([3]; Homo sapiens): > 2000 nM
- IC50 [4]: 1.2 nM

SMILES: Cn1cnnc1N1CCN(C(=O)c2cc3nc(C4CCC(C)(C)CC4)cc(C(C)(C)C)c3o2)C(C)(C)C1 [Example I-530]
- IC50 [1]: 6.8 nM
- IC50 ([2]; Homo sapiens): > 2000 nM
- IC50 ([3]; Homo sapiens): > 2000 nM
- IC50 [4]: 5 nM

SMILES: CC(C)(C)c1cc(-c2ccc(Cl)cc2)nc2cc(C(=O)N3CCN(c4ccc(-c5nnn[nH]5)cn4)CC3(C)C)oc12 [Example I-531]
- IC50 [1]: 1.5 nM
- IC50 ([2]; Homo sapiens): > 2000 nM
- IC50 ([3]; Homo sapiens): > 2000 nM
- IC50 [4]: 2.8 nM
